Measurements as given in ChEMBL document CHEMBL2321811, “Conjugates of modified cryptophycins and RGD-peptides enter target cells by endocytosis” (J Med Chem, 2013).

Tests used:
[1] = Cytotoxicity against human KB-3-1 cells by resazurin reduction assay; type: functional, cell-based
[2] = Cytotoxicity against human KBV1 cells by resazurin reduction assay; type: functional, cell-based; conditions: KB-V1
[3] = Binding affinity to integrin in human WM-115 cells after 30 mins by immobilized vitronectin-based competitive cell adhesion assay

Row | SMILES | IC50 [1] | IC50 [2] | IC50 [3]
1 | C=CCOC(=O)C[C@@H]1CNC(=O)[C@@H](Cc2ccc(OC)c(Cl)c2)NC(=O)/C=C/C[C@@H]([C@H](C)[C@H]2O[C@@H]2c2ccccc2)OC(=O)[C@H](CC(C)C)OC1=O | 0.0961 nM | 2.7 nM | 
2 | C=CCOC(=O)C[C@H]1CNC(=O)[C@@H](Cc2ccc(OC)c(Cl)c2)NC(=O)/C=C/C[C@@H]([C@H](C)[C@H]2O[C@@H]2c2ccccc2)OC(=O)[C@H](CC(C)C)OC1=O | 0.0083 nM | 6 nM | 
3 | C=CCOC(=O)CCC[C@@H]1CNC(=O)[C@@H](Cc2ccc(OC)c(Cl)c2)NC(=O)/C=C/C[C@@H]([C@H](C)[C@H]2O[C@@H]2c2ccccc2)OC(=O)[C@H](CC(C)C)OC1=O | 0.433 nM | 45.2 nM | 
4 | C=CCOCCC[C@@H]1CNC(=O)[C@@H](Cc2ccc(OC)c(Cl)c2)NC(=O)/C=C/C[C@@H]([C@H](C)[C@H]2O[C@@H]2c2ccccc2)OC(=O)[C@H](CC(C)C)OC1=O | 0.149 nM | 26.6 nM | 
5 | C=CCOCCC[C@H]1CNC(=O)[C@@H](Cc2ccc(OC)c(Cl)c2)NC(=O)/C=C/C[C@@H]([C@H](C)[C@H]2O[C@@H]2c2ccccc2)OC(=O)[C@H](CC(C)C)OC1=O | 0.0527 nM | 38 nM | 
6 | COc1ccc(C[C@H]2NC(=O)/C=C/C[C@@H]([C@H](C)[C@H]3O[C@@H]3c3ccccc3)OC(=O)[C@H](CC(C)C)OC(=O)[C@H](CCN=[N+]=[N-])CNC2=O)cc1Cl | 0.0216 nM | 2.1 nM | 
7 | COc1ccc(C[C@H]2NC(=O)/C=C/C[C@@H]([C@H](C)[C@H]3O[C@@H]3c3ccccc3)OC(=O)[C@H](CC(C)C)OC(=O)[C@@H](CCN=[N+]=[N-])CNC2=O)cc1Cl | 0.0546 nM | 14.1 nM | 
8 | COc1ccc(C[C@H]2NC(=O)/C=C/C[C@@H]([C@H](C)[C@H]3O[C@@H]3c3ccccc3)OC(=O)[C@H](CC(C)C)OC(=O)[C@H](CCCN=[N+]=[N-])CNC2=O)cc1Cl | 0.112 nM | 18.4 nM | 
9 | COc1ccc(C[C@H]2NC(=O)/C=C/C[C@@H]([C@H](C)[C@H]3O[C@@H]3c3ccccc3)OC(=O)[C@H](CC(C)C)OC(=O)[C@@H](CCCN=[N+]=[N-])CNC2=O)cc1Cl | 11.5 nM | 114 nM | 
10 | COc1ccc(C[C@H]2NC(=O)/C=C/C[C@@H]([C@H](C)[C@H]3O[C@@H]3c3ccccc3)OC(=O)[C@H](CC(C)C)OC(=O)[C@H](CCCCN=[N+]=[N-])CNC2=O)cc1Cl | 0.249 nM | 23.5 nM | 
11 | COc1ccc(C[C@H]2NC(=O)/C=C/C[C@@H]([C@H](C)[C@H]3O[C@@H]3c3ccccc3)OC(=O)[C@H](CC(C)C)OC(=O)[C@H](CCCn3cc(C(C)(C)O)nn3)CNC2=O)cc1Cl | 0.101 nM | 411 nM | 
12 | COc1ccc(C[C@H]2NC(=O)/C=C/C[C@@H]([C@H](C)[C@H]3O[C@@H]3c3ccccc3)OC(=O)[C@H](CC(C)C)OC(=O)[C@@H](CCCn3cc(C(C)(C)O)nn3)CNC2=O)cc1Cl | 0.312 nM | 3020 nM | 
13 | COc1ccc(C[C@H]2NC(=O)/C=C/C[C@@H]([C@H](C)[C@H]3O[C@@H]3c3ccccc3)OC(=O)[C@H](CC(C)C)OC(=O)[C@@H](CCCn3cc(C[C@@H]4NC(=O)[C@@H](Cc5ccccc5)NC(=O)[C@H](CC(=O)O)NC(=O)CNC(=O)[C@H](CCCNC(=N)N)NC4=O)nn3)CNC2=O)cc1Cl | 55.8 nM | 1800 nM | 
14 | COc1ccc(C[C@H]2NC(=O)/C=C/C[C@@H]([C@H](C)[C@H]3O[C@@H]3c3ccccc3)OC(=O)[C@H](CC(C)C)OC(=O)C(C)(C)CNC2=O)cc1Cl [CRYPTOPHYCIN 52] | 0.0155 nM | 0.26 nM | 
15 | CC(C)[C@@H]1NC(=O)[C@@H](Cc2ccccc2)NC(=O)[C@H](CC(=O)O)NC(=O)CNC(=O)[C@H](CCCN=C(N)N)NC1=O [CYCLORGDFV] |  |  | 500 nM
